The record followed here is patent US12123060B2, “Method for identifying targets for precision cancer therapy” (Tampere University Foundation sr, priority 2021, dated 2024).

What all share (format): cell-based, human
The test system of test [1] is L1 ORF1 and ORF2 mRNA in LNCaP cells. The test can be described thus: qPCR of L1 ORF1 and ORF2 mRNA. The conditions noted are these: for ORF1 and ORF2 mRNA expression compared to control treated cells: 5 days, alone or in combination, AZT 50 μM. The protocol:
Carboplatin or enzalutamide dissolved in DMSO and culture medium without FBS was added after a 24-hour initial incubation period. To control cells DMSO diluted in culture medium was added to a final concentration of 0.02%. […]
(§1) The isolation of RNA from cell lines was conducted using TriPure Isolation Reagent (Roche) following the manufacturer's protocol. The concentration of the RNA samples was measured using NanoDrop™ One/OneC Microvolume UV-Vis Spectrophotometer, followed by dilution of the samples to 1 μg/μl. The conversion of 1 μg of RNA to cDNA was done using Transcriptor First Strand cDNA Synthesis Kit (Roche) according to the manufacturer's instructions. The RT-PCR run was performed using LightCycler™ 480 SYBR Green I Master (Roche) and The LightCycler® 480 Real-Time PCR System (Roche) with 96-multiwell format. To allow separate analysis of ORF1 and ORF2, two sets of primer pairs were designed to target the L1RP-ORF1 (ORF1 mRNA thereafter), L1RP-ORF2 (ORF2 mRNA thereafter) and FANCI (Table 2). Each run included two biological and two technical replicates per treatment with fold change calculated based on the obtained Ct-values. Normalization was done against GAPDH values measured (Table 2).

The test system of test [2] is L1 activity in LNCaP prostate cancer cells. The test can be described thus: L1-EGFP retrotransposition reporter assay. The following applies: carboplatin 5 μM or ENZ 10 μM, 5 days, FIG. 3A. As for the experimental part:
FIG. 3. […] (A) The effects of carboplatin (5 μM) or enzalutamide (ENZ, 10 μM) on L1 activity in LNCaP prostate cancer cells analyzed using a retrotransposition L1-EGFP reporter assay and IncuCyte S3 imaging equipped with a green fluorescence channel. Representative IncuCyte cell images are shown for untreated, ENZ, and carboplatin exposed LNCaP cells with green channel only (L1-EGFP) and phase contrast. The control plasmids used included two negative controls (L1Neg-EGFP and L1Mut-EGFP) and a positive control plasmid (L1Pos-EGFP). […] See also FIG. 8. (B) The effects of carboplatin or ENZ on ORF1 and ORF2 mRNA expression in LNCaP, VCaP, PC-3, and 22Rv1 prostate cancer cells. (C) L1 ORF1 and ORF2 mRNA levels from pre- and post-castration xenograft samples from LuCaP 77 and LuCaP 105 (23). […]
FIG. 8. […] (A) The effects of carboplatin (5 μM) or enzalutamide (ENZ, 10 μM) on L1 activity in LNCaP prostate cancer cells analyzed using a retrotransposition L1-EGFP reporter assay and IncuCyte S3 imaging system equipped with a green fluorescence channel. […]
Carboplatin or enzalutamide dissolved in DMSO and culture medium without FBS was added after a 24-hour initial incubation period. […] LNCaP prostate cancer cells were transfected with L1 plasmid or positive and negative control plasmids and treated with carboplatin (5 μM) or ENZ (10 μM) the day after transfection, and cells were monitored for five days. […]

The test system of test [3] is L1 ORF1 and ORF2 mRNA in VCaP cells. The test can be described thus: qPCR of L1 ORF1 and ORF2 mRNA. The conditions noted are these: for increase in ORF1 and ORF2 expression: 5-day treatment, carboplatin 5 μM or ENZ 10 μM, FIG. 3B. The protocol: Carboplatin or enzalutamide dissolved in DMSO and culture medium without FBS was added after a 24-hour initial incubation period. To control cells DMSO diluted in culture medium was added to a final concentration of 0.02%. LNCaP prostate cancer cells were transfected with L1 plasmid or positive and negative control plasmids and treated with carboplatin (5 μM) or ENZ (10 μM) the day after transfection, and cells were monitored for five days.
as §1

The subject of test [4] is LNCaP cells. The test can be described thus: Cell proliferation assay (siRNA knockdown, cell confluence). The following applies: 10 μM carboplatin. The protocol:
For cell proliferation assays, cells were reverse transfected with 25 nM siRNAs against FANCI (Dharmacon, ON-TARGETplus SMARTpool, L-022320-01-0005) or Scr control (Dharmacon, non-targeting pool), using OPTI-MEM and Lipofectamine 2000 transfection reagent (Invitrogen) in four biological replicates in a 384-well plate. LNCaP cells were plated on the wells (1000 cells/well) in antibiotic free regular growth medium. After 48 h, vehicle control (DMSO) or Carboplatin dilutions were added into wells in appropriate concentrations diluted in FBS free medium and the cell confluence was monitored for five days using live-cell imaging (IncuCyte S3, Sartorius). Cell confluence was determined by automatic counting using IncuCyte S3 Image analysis tools. Cell confluence (confluence mask) on each time point was calculated based on phase-contrast imaging with a minimum area filter of 150 μm2, segmentation adjustment of 1.0, 100 μm2 cleanup and size adjust of −2 pixels. Confluence curves were compared for statistical differences between treatment conditions at each timepoint using t-test.

Test [5] relates to L1 ORF1p in LNCaP cells. Kind of test: Western blot of L1 ORF1 protein. The conditions noted are these: carboplatin alone, or carboplatin with further addition of AZT, FIG. 9D. The protocol:
FIG. 9. Further validation of L1 activation and suppression. (A) L1 mRNA levels from pre- and post-castration samples from LuCaP 77 and LuCaP 105 (16). […] Asterisks indicate significant differences between treatment conditions based on t-test (*, p<0.05; **, p<0.01; ***, p<0.001).
Whole cell lysates were prepared using SDS sample buffer (66 mM Tris-HCl pH 6.8, 13% Glyserol, 2.1% SDS and 0.01% Bromophenol Blue) with protease inhibitor added (cOmplete™ Protease Inhibitor Cocktail, Roche).
(In western blotting, separated proteins are transferred to a membrane and probed.)

For the molecule `CNC(=O)c1ccc(N2C(=S)N(c3ccc(C#N)c(C(F)(F)F)c3)C(=O)C2(C)C)cc1F` [ENZ, enzalutamide], the “ORF1 and ORF2 mRNA induction” value in test [1] (25-day incubation, ENZ alone or with AZT, FIG. 3D) is recorded as 8 fold. Moreover, the “ORF1 and ORF2 mRNA expression compared to control treated cells” value in test [1] (FIG. 3D) was “no significant changes”. Also, the “L1 retrotransposition (L1-EGFP reporter, green fluorescence)” value in test [2] was “relative increase in L1-EGFP reporter, below statistical significance”. Also, in test [3], the “increase in ORF1 and ORF2 expression” value came to 5.5 fold.
Take `N.N.O=C([O-])C1(C(=O)[O-])CCC1.[Pt+2]` [carboplatin]: the “increase in ORF1 and ORF2 expression” value in test [1] (5-day treatment, carboplatin 5 μM, FIG. 3B) is recorded as “approximately 4 fold”; in test [3], 7 fold. The “ORF1 and ORF2 mRNA expression compared to control treated cells” value in test [1] (FIG. 3D) is reported as “approximately 4 fold”; in test [3] (5 days, alone or in combination, AZT 50 μM, FIG. 3D) it was approximately 9 fold. Moreover, the “proliferation of siFANCI LNCaP cells on carboplatin exposure” value in test [4] was “significantly decreased proliferation”. For the same molecule, the “L1 retrotransposition (L1-EGFP reporter, green fluorescence)” value in test [2] is “L1 retrotransposition indicated by green fluorescence appeared”. In test [5], the “level of L1 ORF1p (Western blot)” value is given as “significantly increased”.
